{"source": "patent US11453703B2", "about": "“Heterotandem bicyclic peptide complexes” (BicycleTX Limited, priority 2018, dated 2022)", "note": "Starred links: 1 amine or outer side, 2 acyl side, 3 side chain; linkers in the order of their positions; H or OH if unused. Positions of bridges follow the written chain, without caps; N, C: chain ends. Non-standard residues stand in square brackets, D forms with d. Residues, ends and D or L forms follow the SMILES beside them. Chains are numbered I, II in the order given. TATA = O=C(CC[*:1])N1CN(C(=O)CC[*:2])CN(C(=O)CC[*:3])C1; X2 = O=C(CCOCCOCCOCCOCCOCCn1cc(CCC(=O)[*:2])nn1)[*:1]; Hyp = O=C(O)[C@@H]1C[C@@H](O)CN1; hArg = N=C(N)NCCCC[C@H](N)C(=O)O; tBuAla = CC(C)(C)C[C@H](N)C(=O)O; Nle = CCCC[C@H](N)C(=O)O"}
{"biological_target": "T1, CD137 (Homo sapiens, UniProt Q07011)", "T1 sequence (Q07011 24-255)": "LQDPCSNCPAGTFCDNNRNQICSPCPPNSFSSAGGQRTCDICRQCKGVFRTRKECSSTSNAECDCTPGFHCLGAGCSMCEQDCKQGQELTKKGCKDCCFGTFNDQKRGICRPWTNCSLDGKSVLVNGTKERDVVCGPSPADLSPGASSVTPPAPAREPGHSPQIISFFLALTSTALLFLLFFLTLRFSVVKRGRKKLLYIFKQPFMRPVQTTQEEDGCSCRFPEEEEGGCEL", "assay": "CD137 reporter assay, co-culture with EphA2 tumour cells", "format": "cell-based", "set-up": "host or cells: Jurkat reporter cells", "conditions": "tumour target EphA2, co-culture with PC3, 6 h", "protocol": "(§1) Culture medium referred to as R1 media is prepared by adding 1% FBS to RPMI-1640 (component of Promega kit CS196005). Serial dilutions of test articles in R1 are prepared in a sterile 96 well-plate. Use 25 μl per well of test articles or R1 (as a background control) to designated wells in white cell culture plate. Tumour cells* are harvested and resuspended at a concentration of 400,000 cells/mL in R1 media. Twenty five (25) μL/well tumour cells are used in white cell culture plate. Jurkat cells (Promega kit CS196005, 0.5 mL) are thawed in the water bath and then added to 5 ml pre-warmed R1 medium. Twenty five (25) μL/well Jurkat cells are used in white cell culture plate. Incubate the cells and test articles for 6h at 37° C., 5% CO2. At the end of 6 h, add 75 μl/well Bio-Glo™ (Promega) and incubate for 10 min before reading luminescence in a plate reader (Clariostar, BMG). The fold change relative to cells (Jurkat cells+Cell line used in co-culture) is calculated and plotted in GraphPad Prism as log(agonist) vs response to determine EC50 (nM) and Fold Induction over background (Max)", "units": {"EC50": "nM", "Fold Induction over Background": "fold"}}
{"smiles": "CCCC[C@@H]1NC(=O)[C@H](Cc2ccc(O)cc2)NC(=O)[C@@H]2CCCN2C(=O)[C@H](CC(=O)O)NC(=O)[C@H](C)NC(=O)[C@H](Cc2ccccc2)NC(=O)[C@@H]2CSCCC(=O)N3CN(CN(C3)C(=O)CCSC[C@@H](C(=O)N[C@@H](C)C(N)=O)NC1=O)C(=O)CCSC[C@H](NC(C)=O)C(=O)N[C@@H](CC(C)(C)C)C(=O)N1CCC[C@H]1C(=O)N[C@@H](CCC(=O)O)C(=O)N[C@H](CCCCNC(=O)CCc1cn(CCOCCOCCOCCOCCOCCC(=O)N[C@@H](C)C(=O)N[C@@H](CCCCNC(=N)N)C(=O)N[C@@H](CC(=O)O)C(=O)N[C@H]3CSCCC(=O)N4CN5CN(C4)C(=O)CCSC[C@H](NC(=O)[C@H](CC(C)C)NC(=O)[C@@H]4CCCN4C(=O)[C@H](CC(N)=O)NC(=O)[C@H](C(C)C)NC(=O)[C@H](CC(C)C)NC(=O)[C@@H]4C[C@@H](O)CN4C3=O)C(=O)N[C@@H](CC(C)C)C(=O)N[C@@H](Cc3c[nH]cn3)C(=O)N3CCC[C@H]3C(=O)N[C@H](CC(=O)O)C(=O)N[C@@H](Cc3c[nH]c4ccccc34)C(=O)N[C@@H](CCCCNC(=N)N)C(=O)N[C@H](C(N)=O)CSCCC5=O)nn1)C(=O)N1CCC[C@H]1C(=O)N[C@@H](Cc1ccc(O)cc1)C(=O)N2", "note": "[BCY10575] (I: A[hArg]DC[Hyp]LVNPLCLHP[dD]W[hArg]C-NH2 / II: Ac-C[tBuAla]PE[dK]PYCFADPY[Nle]CA-NH2; linker I:4-I:11-I:18, II:1-II:8-II:15 via TATA; linker I:N-II:5 via X2)", "EC50": 0.62, "Fold Induction over Background": 38}
{"smiles": "CCCC[C@@H]1NC(=O)[C@H](Cc2ccc(O)cc2)NC(=O)[C@@H]2CCCN2C(=O)[C@H](CC(=O)O)NC(=O)[C@H](C)NC(=O)[C@H](Cc2ccccc2)NC(=O)[C@@H]2CSCCC(=O)N3CN(CN(C3)C(=O)CCSC[C@@H](C(=O)N[C@@H](CNC(=O)CCc3cn(CCOCCOCCOCCOCCOCCC(=O)N[C@@H](C)C(=O)N[C@@H](CCCCNC(=N)N)C(=O)N[C@@H](CC(=O)O)C(=O)N[C@H]4CSCCC(=O)N5CN6CN(C5)C(=O)CCSC[C@H](NC(=O)[C@H](CC(C)C)NC(=O)[C@@H]5CCCN5C(=O)[C@H](CC(N)=O)NC(=O)[C@H](C(C)C)NC(=O)[C@H](CC(C)C)NC(=O)[C@@H]5C[C@@H](O)CN5C4=O)C(=O)N[C@@H](CC(C)C)C(=O)N[C@@H](Cc4c[nH]cn4)C(=O)N4CCC[C@H]4C(=O)N[C@H](CC(=O)O)C(=O)N[C@@H](Cc4c[nH]c5ccccc45)C(=O)N[C@@H](CCCCNC(=N)N)C(=O)N[C@H](C(N)=O)CSCCC6=O)nn3)C(N)=O)NC1=O)C(=O)CCSC[C@H](NC(C)=O)C(=O)N[C@@H](CC(C)(C)C)C(=O)N1CCC[C@H]1C(=O)N[C@@H](CCC(=O)O)C(=O)N[C@H](C)C(=O)N1CCC[C@H]1C(=O)N[C@@H](Cc1ccc(O)cc1)C(=O)N2", "note": "[BCY10576]", "EC50": 0.51, "Fold Induction over Background": 38}
{"smiles": "CCCC[C@@H]1NC(=O)[C@H](Cc2ccc(O)cc2)NC(=O)[C@@H]2CCCN2C(=O)[C@H](CC(=O)O)NC(=O)[C@H](C)NC(=O)[C@H](Cc2ccccc2)NC(=O)[C@@H]2CSCCC(=O)N3CN(CN(C3)C(=O)CCSC[C@@H](C(=O)N[C@@H](CNC(=O)Cn3cc(CCC(=O)NCCC(=O)N(C)CC(=O)N(C)CC(=O)N(C)CC(=O)N(C)CC(=O)N(C)CC(=O)N(C)CC(=O)N(C)CC(=O)N(C)CC(=O)N(C)CC(=O)N(C)CC(=O)N[C@@H](C)C(=O)N[C@@H](CCCCNC(=N)N)C(=O)N[C@@H](CC(=O)O)C(=O)N[C@H]4CSCCC(=O)N5CN6CN(C5)C(=O)CCSC[C@H](NC(=O)[C@H](CC(C)C)NC(=O)[C@@H]5CCCN5C(=O)[C@H](CC(N)=O)NC(=O)[C@H](C(C)C)NC(=O)[C@H](CC(C)C)NC(=O)[C@@H]5C[C@@H](O)CN5C4=O)C(=O)N[C@@H](CC(C)C)C(=O)N[C@@H](Cc4c[nH]cn4)C(=O)N4CCC[C@H]4C(=O)N[C@H](CC(=O)O)C(=O)N[C@@H](Cc4c[nH]c5ccccc45)C(=O)N[C@@H](CCCCNC(=N)N)C(=O)N[C@H](C(N)=O)CSCCC6=O)nn3)C(N)=O)NC1=O)C(=O)CCSC[C@H](NC(C)=O)C(=O)N[C@@H](CC(C)(C)C)C(=O)N1CCC[C@H]1C(=O)N[C@@H](CCC(=O)O)C(=O)N[C@H](C)C(=O)N1CCC[C@H]1C(=O)N[C@@H](Cc1ccc(O)cc1)C(=O)N2", "note": "[BCY10577]", "EC50": 0.28, "Fold Induction over Background": 37}
{"biological_target": "T1, CD137", "assay": "CD137 reporter assay, co-culture with PD-L1 expressing cell line RKO", "format": "cell-based", "set-up": "host or cells: Jurkat reporter cells", "conditions": "tumour target PD-L1, co-culture with RKO, 6 h", "protocol": "as §1", "units": {"EC50": "nM", "Fold Induction over Background": "fold"}}
{"smiles": "CCCC[C@@H]1NC(=O)[C@H](Cc2ccc(O)cc2)NC(=O)[C@@H]2CCCN2C(=O)[C@H](CC(=O)O)NC(=O)[C@H](C)NC(=O)[C@H](Cc2ccccc2)NC(=O)[C@@H]2CSCCC(=O)N3CN(CN(C3)C(=O)CCSC[C@@H](C(=O)N[C@@H](CNC(=O)CCOCCOCCOCCOCCOCCOCCOCCOCCOCCOCCOCCOCCn3cc(CCC(=O)NCCC(=O)N(C)CC(=O)N(C)CC(=O)N(C)CC(=O)N(C)CC(=O)N(C)CC(=O)N(C)CC(=O)N(C)CC(=O)N(C)CC(=O)N(C)CC(=O)N(C)CC(=O)N[C@@H](CO)C(=O)N[C@@H](CC(=O)O)C(=O)N[C@@H](CCCCN)C(=O)N[C@H]4CSCCC(=O)N5CN6CN(C5)C(=O)CCSC[C@H](NC(=O)[C@H](CCSC)NC(=O)[C@H]([C@@H](C)O)NC(=O)[C@H](CC(C)C)NC(=O)[C@H](Cc5c[nH]c7ccccc57)NC(=O)CNC(=O)[C@H](C)NC(=O)[C@H](CO)NC4=O)C(=O)N[C@@H](CCC(N)=O)C(=O)N[C@@H](CCCCN)C(=O)N[C@@H](CC(C)C)C(=O)N[C@@H](Cc4c[nH]cn4)C(=O)N[C@@H](CC(C)C)C(=O)N[C@H](C(N)=O)CSCCC6=O)nn3)C(N)=O)NC1=O)C(=O)CCSC[C@H](NC(C)=O)C(=O)N[C@@H](CC(C)(C)C)C(=O)N1CCC[C@H]1C(=O)N[C@@H](CCC(=O)O)C(=O)N[C@H](C)C(=O)N1CCC[C@H]1C(=O)N[C@@H](Cc1ccc(O)cc1)C(=O)N2", "note": "[BCY10580]", "EC50": 28, "Fold Induction over Background": 3}
{"smiles": "CCCC[C@@H]1NC(=O)[C@H](Cc2ccc(O)cc2)NC(=O)[C@@H]2CCCN2C(=O)[C@H](CC(=O)O)NC(=O)[C@H](C)NC(=O)[C@H](Cc2ccccc2)NC(=O)[C@@H]2CSCCC(=O)N3CN(CN(C3)C(=O)CCSC[C@@H](C(=O)N[C@@H](CNC(=O)CCOCCOCCOCCOCCOCCOCCOCCOCCOCCOCCOCCOCCn3cc(CCC(=O)NCCCC[C@H](NC(=O)CN(C)C(=O)CN(C)C(=O)CN(C)C(=O)CN(C)C(=O)CN(C)C(=O)CN(C)C(=O)CN(C)C(=O)CN(C)C(=O)CN(C)C(=O)CN(C)C(=O)[C@@H]4CSCCC(=O)N5CN6CN(C5)C(=O)CCSC[C@H](NC(=O)[C@H](CCSC)NC(=O)[C@H]([C@@H](C)O)NC(=O)[C@H](CC(C)C)NC(=O)[C@H](Cc5c[nH]c7ccccc57)NC(=O)CNC(=O)[C@H](C)NC(=O)[C@H](CO)NC(=O)[C@@H](NC(=O)[C@H](CCCCN)NC(=O)[C@H](CC(=O)O)NC(=O)[C@@H](N)CO)CSCCC6=O)C(=O)N[C@@H](CCC(N)=O)C(=O)N[C@@H](CCCCN)C(=O)N[C@@H](CC(C)C)C(=O)N[C@@H](Cc5c[nH]cn5)C(=O)N[C@@H](CC(C)C)C(=O)N4)C(N)=O)nn3)C(N)=O)NC1=O)C(=O)CCSC[C@H](NC(C)=O)C(=O)N[C@@H](CC(C)(C)C)C(=O)N1CCC[C@H]1C(=O)N[C@@H](CCC(=O)O)C(=O)N[C@H](C)C(=O)N1CCC[C@H]1C(=O)N[C@@H](Cc1ccc(O)cc1)C(=O)N2", "note": "[BCY10581]", "EC50": 18, "Fold Induction over Background": 6}
{"smiles": "CCCC[C@@H]1NC(=O)[C@H](Cc2ccc(O)cc2)NC(=O)[C@@H]2CCCN2C(=O)[C@H](CC(=O)O)NC(=O)[C@H](C)NC(=O)[C@H](Cc2ccccc2)NC(=O)[C@@H]2CSCCC(=O)N3CN(CN(C3)C(=O)CCSC[C@@H](C(=O)N[C@@H](CNC(=O)CCOCCOCCOCCOCCOCCOCCOCCOCCOCCOCCOCCOCCn3cc(CCC(=O)NCCCC[C@@H]4NC(=O)[C@H](CCC(N)=O)NC(=O)[C@@H]5CSCCC(=O)N6CN(CN(C6)C(=O)CCSC[C@H](NC(=O)[C@H](CCCCN)NC(=O)[C@H](CC(=O)O)NC(=O)[C@@H](N)CO)C(=O)N[C@@H](CO)C(=O)N[C@@H](C)C(=O)NCC(=O)N[C@@H](Cc6c[nH]c7ccccc67)C(=O)N[C@@H](CC(C)C)C(=O)N[C@@H]([C@@H](C)O)C(=O)N[C@@H](CCSC)C(=O)N5)C(=O)CCSC[C@@H](C(N)=O)NC(=O)[C@H](CC(C)C)NC(=O)[C@H](Cc5c[nH]cn5)NC(=O)[C@H](CC(C)C)NC4=O)nn3)C(N)=O)NC1=O)C(=O)CCSC[C@H](NC(C)=O)C(=O)N[C@@H](CC(C)(C)C)C(=O)N1CCC[C@H]1C(=O)N[C@@H](CCC(=O)O)C(=O)N[C@H](C)C(=O)N1CCC[C@H]1C(=O)N[C@@H](Cc1ccc(O)cc1)C(=O)N2", "note": "[BCY10582]", "EC50": 28, "Fold Induction over Background": 4}
